According to patent US20080281105A1, “Novel Quinolinium Salts and Derivatives” (IMMUSOL INCORPORATED, priority 2005, published 2008):

Experiments:
[1] = system: A2780; assay: Cell growth in liquid culture (alamarBlue); details: Homo sapiens, A2780, 72 h, read-out: IC50 (uM) Liquid culture
[2] = system: HS578; assay: Cell growth in soft agar culture (alamarBlue); details: Hs578, 168 h, read-out: IC50 (uM) Soft agar
[3] = system: A549; assay: Cell growth in liquid culture (alamarBlue); details: Homo sapiens, A549, 72 h, read-out: IC50 (uM) Liquid culture
[4] = system: SW480; assay: Cell growth in liquid culture (alamarBlue); details: Homo sapiens, SW480, 72 h, read-out: IC50 (uM) Liquid culture
[5] = system: HT29; assay: Cell growth in liquid culture (alamarBlue); details: Homo sapiens, HT-29, 72 h, read-out: IC50 (uM) Liquid culture
[6] = system: MCF7; assay: Cell growth in liquid culture (alamarBlue); details: Homo sapiens, MCF7, 72 h, read-out: IC50 (uM) Liquid culture
[7] = system: UACC257; assay: Cell growth in soft agar culture (alamarBlue); details: Homo sapiens, UACC-257, 168 h, read-out: IC50 (uM) Soft agar
[8] = system: NCI-H460; assay: Cell growth in liquid culture (alamarBlue); details: Homo sapiens, NCI-H460, 72 h, read-out: IC50 (uM) Liquid culture
[9] = system: Panc-1; assay: Cell growth in liquid culture (alamarBlue); details: Homo sapiens, PANC-1, 72 h, read-out: IC50 (uM) Liquid culture
[10] = system: DU145; assay: Cell growth in soft agar culture (alamarBlue); details: Homo sapiens, DU-145, 168 h, read-out: IC50 (uM) Soft agar
[11] = system: NCI-H460; assay: Cell growth in soft agar culture (alamarBlue); details: Homo sapiens, NCI-H460, 168 h, read-out: IC50 (uM) Soft agar
[12] = system: OVCAR-8; assay: Cell growth in liquid culture (alamarBlue); details: Homo sapiens, OVCAR-8, 72 h, read-out: IC50 (uM) Liquid culture
[13] = system: HUVEC; assay: Cell growth in liquid culture (alamarBlue); details: Homo sapiens, 72 h, read-out: IC50 (uM) Liquid culture
[14] = system: MDA_MB-435; assay: Cell growth in liquid culture (alamarBlue); details: Homo sapiens, MDA-MB-435, 72 h, read-out: IC50 (uM) Liquid culture
[15] = system: HCT116; assay: Cell growth in soft agar culture (alamarBlue); details: Homo sapiens, HCT-116, 168 h, read-out: IC50 (uM) Soft agar
[16] = system: A549; assay: Cell growth in soft agar culture (alamarBlue); details: Homo sapiens, A549, 168 h, read-out: IC50 (uM) Soft agar
[17] = system: HS578; assay: Cell growth in liquid culture (alamarBlue); details: Hs578, 72 h, read-out: IC50 (uM) Liquid culture
[18] = system: OVCAR-1; assay: Cell growth in liquid culture (alamarBlue); details: OVCAR1, 72 h, read-out: IC50 (uM) Liquid culture
[19] = system: SKBR3; assay: Cell growth in soft agar culture (alamarBlue); details: Homo sapiens, SK-BR-3, 168 h, read-out: IC50 (uM) Soft agar
[20] = system: PC3; assay: Cell growth in liquid culture (alamarBlue); details: Homo sapiens, PC-3, 72 h, read-out: IC50 (uM) Liquid culture
[21] = system: CCD112/N; assay: Cell growth in liquid culture (alamarBlue); details: 72 h, read-out: IC50 (uM) Liquid culture
[22] = system: OVCAR-5; assay: Cell growth in soft agar culture (alamarBlue); details: Homo sapiens, OVCAR-5, 168 h, read-out: IC50 (uM) Soft agar
[23] = system: DLD1; assay: Cell growth in liquid culture (alamarBlue); details: Homo sapiens, DLD-1, 72 h, read-out: IC50 (uM) Liquid culture
[24] = system: HCT116 colon cancer cells; details: HCT116 xenograft, I.p.
Description: Female athymic nude (nu/nu) mice were inoculated with HCT116 colon cancer cells, and the tumors were allowed to grow to a volume of about 150 mm^3.

[25] = system: UACC62; assay: Cell growth in liquid culture (alamarBlue); details: Homo sapiens, UACC-62, 72 h, read-out: IC50 (uM) Liquid culture
[26] = system: OVCAR-4; assay: Cell growth in liquid culture (alamarBlue); details: Homo sapiens, OVCAR-4, 72 h, read-out: IC50 (uM) Liquid culture
[27] = system: W138; assay: Cell growth in liquid culture (alamarBlue); details: W138, 72 h, read-out: IC50 (uM) Liquid culture
[28] = system: HCT116; assay: Cell growth in liquid culture (alamarBlue); details: Homo sapiens, HCT-116, 72 h, read-out: IC50 (uM) Liquid culture
[29] = system: DLD1; assay: Cell growth in soft agar culture (alamarBlue); details: Homo sapiens, DLD-1, 168 h, read-out: IC50 (uM) Soft agar

Cc1cc(/C=C/c2ccc3cc(N(C)C)ccc3[n+]2C)c(C)n1-c1ccccc1 [Example 1, Pyrvinium Phosphate]
IC50 [1]: 0.03 to 0.1 µM
IC50 [2]: 0.03 to 0.1 µM
IC50 [3]: 0.1 to 0.3 µM
IC50 [4]: 0.3 to 1 µM
IC50 [5]: > 1 µM
IC50 [6]: 0.03 to 0.1 µM
IC50 [7]: 0.1 to 0.3 µM
IC50 [8]: 0.1 to 0.33 µM
IC50 [9]: 0.3 to 1 µM
IC50 [10]: 0.3 to 1 µM
IC50 [11]: 0.03 to 0.1 µM
IC50 [12]: 0.1 to 0.3 µM
IC50 [13]: 0.03 to 0.1 µM
IC50 [14]: 0.3 to 1 µM
IC50 [15]: 0.1 to 0.3 µM
IC50 [16]: 0.033 to 0.1 µM
IC50 [17]: 0.1 to 0.3 µM
IC50 [18]: 0.03 to 0.1 µM
IC50 [19]: ~1 µM
IC50 [20]: 0.1 to 0.3 µM
IC50 [21]: ~1 µM
IC50 [22]: 0.03 to 0.1 µM
IC50 [23]: 0.3 to 1 µM
Result: Tumor reduction [24]: Tumor reduction (25%)
IC50 [25]: 0.1 to 0.3 µM
IC50 [26]: 0.1 to 0.3 µM
IC50 [27]: 0.1 to 0.3 µM
IC50 [28]: > 1 µM
IC50 [29]: ~1 µM
